Measurements published in patent publication US5977435A, “Plant phosphatases” (Performance Plants, Inc., priority 1997, dated 1999).
Counter-ions that a name gives are not always drawn. Like-named read-outs stand apart in the source and are kept apart here.

How the values were obtained:
[1] = target: T1, potato phosphatase (Solanum tuberosum, UniProt Q6J5M8); experiment: biochemical; type: biochemical; parameters: mature chain from Thr30, C-terminus not determined
T1 sequence (Q6J5M8 with tags, fused parts or gaps V118I/E238V/S277N/V282G/E319A/A394T/S415A/T416I/D418E/I426Y/H428S/N437A): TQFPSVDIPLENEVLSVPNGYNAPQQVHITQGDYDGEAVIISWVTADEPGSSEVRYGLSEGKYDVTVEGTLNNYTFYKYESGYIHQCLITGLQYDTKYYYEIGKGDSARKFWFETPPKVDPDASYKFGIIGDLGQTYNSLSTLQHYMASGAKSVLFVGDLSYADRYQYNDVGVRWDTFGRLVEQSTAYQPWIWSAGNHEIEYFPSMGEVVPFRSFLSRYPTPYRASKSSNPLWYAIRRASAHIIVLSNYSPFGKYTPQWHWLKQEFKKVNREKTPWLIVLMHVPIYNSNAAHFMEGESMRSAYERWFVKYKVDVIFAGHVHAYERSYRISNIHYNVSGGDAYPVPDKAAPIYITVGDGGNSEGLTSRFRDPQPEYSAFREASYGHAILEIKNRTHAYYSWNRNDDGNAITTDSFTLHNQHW
Description: Enzyme activity in the presence of effectors is expressed relative to the control set at 100%.
(§1) Assays were initiated by the addition of enzyme preparation. One unit of phosphatase activity is defined as the quantity of enzyme that would catalyze the hydrolysis of 1 […] of substrate/min at 25° C.

[2] = target: T1, potato phosphatase; experiment: biochemical; type: biochemical; parameters: mature chain from Thr30, C-terminus not determined; conditions: for activation of the phosphatase: 4 mM, added as Cl- salt, Ca, Co, Mn with no added Mg2+
Description: Unless otherwise stated all kinetic studies of the potato phosphatase were performed with PEP using assay A (infra).
The phosphatase was activated approximately 40% in the presence of saturating (4 mM) Mg^2+ (added as MgCl2). Ca^2+, Co^2+, and Mn^2+ were individually tested as Cl^- salts at 4 mM, with no added Mg^2+, and found to uniformly activate the enzyme by about 30%. […]. […] All subsequent kinetic studies were conducted in the presence of 4 mM MgCl2.
as §1

[3] = system: potato tuber phosphotyrosyl proteins; experiment: Dephosphorylation of potato tuber phosphotyrosyl proteins by potato tuber phosphatase; type: biochemical, Solanum tuberosum; conditions: 1 mM present during incubation
Description: A desalted potato tuber extract was incubated at 25° C. in the absence (-) and presence (+) of 30 units/mL purified potato tuber phosphatase. Aliquots were removed at 2 and 19 h and analyzed by immunoblotting using anti-(P-Tyr) IgG (Kamps and Sefton, 1988). The relative P-Tyr content of the 7 antigenic polypeptides was estimated by laser densitometric quantification of the immunoblots as described in the examples. Unless otherwise noted, all values represent the means±SE of triplicate determinations. ^a, the mean of duplicate determinations.
Electroblotting was performed by the method of Moorhead and Plaxton (1990), with the addition of […] o-vanadate to the transfer buffer when maintenance of phosphotyrosyl residues was desired. All immunoblots to be probed with the anti-(black mustard PEP-specific phosphatase) IgG (Duff et al, 1991a) were first pre-treated with sodium m-periodate according to Laine (1988) so as to oxidize antigenic oligosaccharide chains of endogenous tuber glycoproteins. Immunological detection of phosphotyrosylated tuber proteins using anti-(P-Tyr) IgG (Kamps and Sefton, 1988) was performed as referenced above except that the blocking buffer contained 5% (w/v) bovine serum albumin (fraction V) and 1% (w/v) ovalbumin instead of 3% (w/v) defatted milk powder.
Antigenic polypeptides were visualized using an alkaline-phosphatase-taggedsecondary antibody (Moorhead and Plaxton, 1990). Immunological specificities were confirmed by performing immunoblots in which rabbit preimmune serum was substituted for the affinity-purified IgGs. An LKB Ultroscan XL Enhanced Laser Densitometer was used to scan indicated immunoblots. Densitometric data were analysed using the LKB Gelscan XL software (version 2.1). Immunoreactive polypeptides were quantified in terms of their relative absorbance at 633 nm wavelength (A633).
Peeled and diced potato tuber tissue (5 g) was homogenized with a Polytron in 1 volume of 100 mM MES-NaOH (pH 5.8) containing 2 mM PMSF, 2 mM DTT, and 1 mM EDTA. The homogenate was centrifuged for 10 min at 13,000 g in an Eppendorf microfuge, and a 3-mL aliquot of the supernatant fluid was passed at 4° C. through a BioRad Econo-Pac 10DG desalting column that had been pre-equilibrated in homogenization buffer lacking PMSF. Aliquots (0.1 mL) of the desalted crude extract were incubated at 25° C. with and without 3 units of the purified potato phosphatase. Samples were removed at 0, 2 and 19 h and analyzed by immunoblotting using the anti-(P-Tyr) IgG as described supra. Laser densitometric scanning and immunoquantification of the blots was performed as described supra.

[4] = target: T1, potato phosphatase; experiment: Phosphatase assay B, substrate specificity; conditions: for Vmax: pH 5.8, 25° C; for activity of purified enzyme with compound as substrate: tested at 5 mM
Description: Phosphatase activity was determined using assay B and a wide range of compounds, tested at a total concentration of 5 mM unless otherwise specified.
Phosphatase (0.05 units) was incubated in 1.5 mL cuvettes with 0.9 mL of 50 mM MES-NaOH (pH 5.8) containing 4 mM MgCl2 and an alternative substrate (5 mM unless otherwise indicated) for 6 min at 25° C. Reactions were terminated by the sequential addition of 0.1 mL reagent A (3 M H2 SO4 containing 20 mM ammonium molybdate) and […] of 1% (v/v) Triton X-100. Samples were incubated at 25° C. for 20 min and the A660 was determined. To calculate activities, a standard curve over the range of […] Pi was constructed for each set of assays. Assays were performed in triplicate and controls were run for background amounts of Pi present at each substrate concentration by adding reagent A before the enzyme.

[5] = addition 5 mM; PEP 0.25 mM; control = 100%
[6] = addition 0.001 mM; PEP 0.25 mM; control = 100%
[7] = pH 5.8; read-out: Relative Activity
[8] = purified potato phosphatase, assay B
[9] = 5 mM; PEP 0.25 mM; no effect = ±15% control activity
[10] = pH 5.8, read-out: Relative Activity

N[C@@H](CC(=O)O)C(=O)O [Asparatate]
Relative Activity [1, 5]: 64%

Molybdate
Relative Activity [1, 6]: 40%
Relative Activity ([1]; addition 0.01 mM; PEP 0.25 mM; control = 100%): 7%
Relative Activity ([1]; addition 1 mM; PEP 0.25 mM; control = 100%): 0%

[Cl-].[Cl-].[Mg+2] [Mg^2+]
activation of the phosphatase [2]: approximately 40%

NC(CCC(=O)O)C(=O)O (stereo not drawn) [Glutaamate]
activity at 5000 µM [1, 7]: 30%

[O]=[V]([O-])([O-])[O-] [Vanadate]
effect on the phosphatase-caused decrease in protein P-Tyr content [3]: negated
Relative Activity ([1]; addition 0.005 mM; PEP 0.25 mM; control = 100%): 40%
Relative Activity ([1]; addition 0.05 mM; PEP 0.25 mM; control = 100%): 7%

CCN1C(=O)C=CC1=O [N-ethylmaleimide]
effect on enzyme activity after preincubation of enzyme ([1]; 1 mM, preincubation up to 2 min at 25° C): no effect

Nc1ncnc2c1ncn2[C@@H]1O[C@H](COP(=O)(O)OP(=O)(O)O)[C@@H](O)[C@H]1O [Mg-ADP]
Vmax [4, 8]: 46 units/mg

[Cl-].[K+] [KCl]
effect on enzyme activity [1, 9]: no effect

C[C@@H](OP(=O)(O)O)[C@H](N)C(=O)O [P-Tbr]
Vmax [4, 8]: 99 units/mg

O=P(O)(O)OC1C(OP(=O)(O)O)C(OP(=O)(O)O)C(OP(=O)(O)O)C(OP(=O)(O)O)C1OP(=O)(O)O (stereo not drawn) [Phytate, the salt of 1,2,3,4,5,6-cyclohexanehexolphosphoric acid]
activity at 100 µM [1, 7]: 48%

[Co+2] [Co^2+]
activation of the phosphatase [2]: about 30%

O=C1O[C@H]([C@@H](O)CO)C(O)=C1O [Ascorbate]
activity at 5000 µM [1, 7]: 12%

O=P(O)(O)OP(=O)(O)O [PPi]
Km ([4]; apparent Km, purified potato phosphatase, assay B): 4.42 mM
Vmax [4, 8]: 1728 units/mg

O=C(O)CN(CCN(CC(=O)O)CC(=O)O)CC(=O)O [EDTA]
activity at 5000 µM [1, 10]: 32%
inhibition at 5000 µM ([2]; pH 5.8, read-out: reduction of activity): ~65%

[Cl-].[Na+] [NaCl]
effect on enzyme activity [1]: no effect

[Ca+2] [Ca^2+]
activation of the phosphatase [2]: about 30%

[Cl-].[Cl-].[Zn+2] [ZnCl2]
inhibition of phosphatase activity ([2]; 5 mM, in place of added Mg2+): completely inhibited

C=C(OP(=O)(O)O)C(=O)O [PEP]
Vmax [4, 8]: 764 units/mg

O=P(O)(O)OC1O[C@H](CO)[C@@H](O)[C@H](O)[C@H]1O (stereo partly drawn) [Glc-1-P]
activity of purified enzyme with compound as substrate ([4]; assay B): little or no activity

C=C1[C@@H](O)[C@@H]2O[C@]3(CC[C@H](/C=C/[C@@H](C)[C@@H]4CC(C)=C[C@@]5(O[C@H](C[C@@](C)(O)C(=O)O)CC[C@H]5O)O4)O3)CC[C@H]2O[C@@H]1[C@@H](O)C[C@H](C)[C@H]1O[C@@]2(CCCCO2)CC[C@H]1C [okadaic acid]
effect on enzyme activity ([1]; 1 μM; PEP 0.25 mM; no effect = ±15% control activity): no effect

Nc1ncnc2c1ncn2[C@@H]1O[C@H](COP(=O)(O)O)[C@@H](O)[C@H]1O [AMP]
activity of purified enzyme with compound as substrate ([4]; assay B): little or no activity

O=C(O)CN(CCOCCOCCN(CC(=O)O)CC(=O)O)CC(=O)O [EGTA]
activity at 5000 µM [1, 7]: 72%

[Mn+2] [Mn^2+]
activation of the phosphatase [2]: about 30%

O=C(O)C(O)C(O)C(=O)O (stereo not drawn) [tartrate]
effect on enzyme activity [1, 9]: no effect

N[C@@H](CCC(=O)N[C@@H](CS)C(=O)NCC(=O)O)C(=O)O [GSH]
activity at 5000 µM [1, 10]: 131%

[F-].[Na+] [NaF]
Relative Activity [1, 5]: 56%

O=C(O)CC(O)(CC(=O)O)C(=O)O [Mg-citrate]
effect on enzyme activity [1, 9]: no effect

NH4 Cl
effect on enzyme activity [1, 9]: no effect

B1: Phosvitin: egg yolk storage phosphoprotein (protein)
chain: AEFGTEPDAKTSSSSSSASSTATSSSSSSASSPNRKKPMDEEENDQVKQARNKDASSSSRSSKSSNSSKRSSSKSSNSSKRSSSSSSSSSSSSRSSSSSSSSSSNSKSSSSSSKSSSSSSRSRSSSKSSSSSSSSSSSSSSKSSSSRSSSSSSKSSSHHSHSHHSGHLNGSSSSSSSSRSVSHHSHEHHSGHLEDDSSSSSSSSVLSKIWGRHEIYQ
modifications: phosphoserine (Ser is the predominant phosphorylated amino acid of phosvitin)
notes: egg yolk storage phosphoprotein
phosphoprotein phosphatase activity ([4]; phosvitin at 50 μg/ml (125 .eta.M)): 220 units/mg
Relative Activity [1, 6]: 19%
